From PubChem BioAssay AID1033 (Sanford-Burnham Center for Chemical Genomics, 2008)
The source made the active and inactive calls. How the calls were made is not given here.

Target: Chaperone protein DnaK (Escherichia coli (strain K12)) (UniProt P0A6Y8)
Test: E. coli DnaK SBD ligand binding – biophysical, NMR, chaperone (AID 1033)
Conditions: Purified DnaK SBD

Sequence of Chaperone protein DnaK (Escherichia coli (strain K12)) (P0A6Y8 whole entry, looked up): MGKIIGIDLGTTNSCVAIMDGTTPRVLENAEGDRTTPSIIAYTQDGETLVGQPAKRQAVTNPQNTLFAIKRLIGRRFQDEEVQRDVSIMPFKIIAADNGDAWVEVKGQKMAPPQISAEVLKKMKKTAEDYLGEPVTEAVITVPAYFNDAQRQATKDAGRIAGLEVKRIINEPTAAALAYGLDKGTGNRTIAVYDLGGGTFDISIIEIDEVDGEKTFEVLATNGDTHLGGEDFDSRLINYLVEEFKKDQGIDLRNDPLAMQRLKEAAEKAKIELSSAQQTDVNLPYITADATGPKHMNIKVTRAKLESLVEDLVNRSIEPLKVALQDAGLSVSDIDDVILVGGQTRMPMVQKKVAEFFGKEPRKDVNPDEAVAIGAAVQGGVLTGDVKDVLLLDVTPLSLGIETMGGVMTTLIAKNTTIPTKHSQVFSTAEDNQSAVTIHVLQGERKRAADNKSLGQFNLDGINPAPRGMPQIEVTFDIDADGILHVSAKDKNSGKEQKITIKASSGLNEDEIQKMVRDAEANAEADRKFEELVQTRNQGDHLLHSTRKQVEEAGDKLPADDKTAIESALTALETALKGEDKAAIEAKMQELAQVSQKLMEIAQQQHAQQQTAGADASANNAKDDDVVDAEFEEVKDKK

SMILES: CNC(=O)C(=O)Nc1ccc(C)c(C)c1
- Kd: > 4 mM (inactive)

SMILES: O=C(c1ccccc1)N1CCN(c2ccccc2F)CC1
- Kd: > 4 mM (inactive)

SMILES: Cc1ccc(C(=O)n2cnnc2N)cc1C
- Kd: > 4 mM (inactive)

SMILES: O=c1c(-c2ccco2)[n+]([O-])c2ccccc2n1O
- Kd: > 4 mM (inactive)

SMILES: NC(=O)c1ccc(Cl)c(N2C(=O)CCC2=O)c1
- Kd: > 4 mM (inactive)

SMILES: O=C(O)C1COc2ccccc2C1 (stereo not drawn)
- Kd: > 4 mM (inactive)

SMILES: CC(=O)NC(=S)Nc1ccccc1N1CCOCC1
- Kd: > 4 mM (inactive)

SMILES: COC(=O)c1cc2ccccc2cn1
- Kd: > 4 mM (inactive)

SMILES: C[C@@H]1O[C@@H](O[C@H]2[C@@H](Oc3cc(O)c4c(c3)O[C@H](c3ccc(O)cc3)CC4=O)O[C@H](CO)[C@@H](O)[C@@H]2O)[C@H](O)[C@H](O)[C@H]1O
- Kd: > 4 mM (inactive)

SMILES: O=c1cccc2n1CC1CC2CN2CCCC[C@@H]12 (stereo partly drawn)
- Kd: > 4 mM (inactive)

SMILES: NC1=NC(=O)CC(C(=O)Nc2ccccc2)S1 (stereo not drawn)
- Kd: > 4 mM (inactive)

SMILES: CN(C)C1CCS(=O)(=O)C1 (stereo not drawn)
- Kd: > 4 mM (inactive)

SMILES: Cc1ccc(CN2C3=NC(=O)CN3c3ccccc32)cc1
- Kd: > 4 mM (inactive)

SMILES: CC1(C)C(=O)[C@@H]2O[C@@H]2[C@@]2(C)C1C[C@@H](O)[C@]1(C)C2CC[C@@]2(C)[C@H](c3ccoc3)OC(=O)C3OC321 (stereo partly drawn)
- Kd: > 4 mM (inactive)

SMILES: CC1(C)CC2(CCO1)NCCN1C(=O)CSC12 (stereo not drawn)
- Kd: > 4 mM (inactive)

SMILES: CC(=O)NN1C(=O)c2cccc3cccc(c23)C1=O
- Kd: > 4 mM (inactive)

SMILES: O=C1NC(=O)C(=Cc2ccccc2)C(=O)N1
- Kd: > 4 mM (inactive)

SMILES: O=C(c1ccco1)N1CCNCC1
- Kd: > 4 mM (inactive)

SMILES: CC1(C)Cc2cccc(C(=O)O)c2O1
- Kd: > 4 mM (inactive)

SMILES: CNC(=O)C(=O)Nc1cccc(Cl)c1
- Kd: > 4 mM (inactive)

SMILES: CN(C)CCNC(CC(=O)Nc1ccccc1)C(=O)O (stereo not drawn)
- Kd: > 4 mM (inactive)

SMILES: CSc1nc2[nH]ncc2c(=O)[nH]1
- Kd: > 4 mM (inactive)

SMILES: CC(=O)c1cc2c(s1)SCC(=O)N2
- Kd: > 4 mM (inactive)

SMILES: CCNC(=S)NS(=O)(=O)c1ccccc1
- Kd: > 4 mM (inactive)

SMILES: Cc1cc(O)cc(O)c1C(=O)O
- Kd: > 4 mM (inactive)

SMILES: CC1=NN(c2ccc(C)cc2)C(=O)C1
- Kd: > 4 mM (inactive)

SMILES: C[C@H]1[C@H](C)CC[C@]2(CO)CC[C@]3(C)C(=CCC4[C@@]5(C)CC[C@H](O)C(C)(C)C5CC[C@]43C)[C@H]12 (stereo partly drawn)
- Kd: > 4 mM (inactive)

SMILES: OC1(c2ccc(Cl)cc2)CCNCC1
- Kd: > 4 mM (inactive)

SMILES: Cc1nnsc1-c1onc(C)c1C(=O)O
- Kd: > 4 mM (inactive)

SMILES: CC(C)n1c(Nn2cnnc2)nc2ccccc21
- Kd: > 4 mM (inactive)

SMILES: Cc1nc(NCc2ccco2)nc2c1C(=O)CC(C)C2 (stereo not drawn)
- Kd: > 4 mM (inactive)

SMILES: Cc1ccc(C(=O)NC2=NCCS2)o1
- Kd: > 4 mM (inactive)

SMILES: COc1cc(CNC(=O)CCCC/C=C/C(C)C)ccc1O
- Kd: > 4 mM (inactive)

SMILES: Cc1cc(NC(=O)c2ccc3c(c2)OCCO3)no1
- Kd: > 4 mM (inactive)

SMILES: O=c1c(O)c(-c2ccccc2)oc2ccccc12
- Kd: > 4 mM (inactive)

SMILES: O=C(O)CC12CC3CC(CC(O)(C3)C1)C2
- Kd: > 4 mM (inactive)

SMILES: CC(C)=CCc1c(O)cc(C)oc1=O
- Kd: > 4 mM (inactive)

SMILES: COc1cc2c(cc1OC)[C@@H]1C(=O)c3ccc(O)c(CC=C(C)C)c3O[C@@H]1CO2
- Kd: > 4 mM (inactive)

SMILES: CSc1nnnn1-c1cccc(O)c1
- Kd: > 4 mM (inactive)

SMILES: Oc1ccc(C(=S)N2CCOCC2)cc1
- Kd: > 4 mM (inactive)

SMILES: Cc1noc(C)c1C(=O)N1CCC(Cc2ccccc2)CC1
- Kd: > 4 mM (inactive)

SMILES: CC(C)=CC(=O)Nc1ccccc1Br
- Kd: > 4 mM (inactive)

SMILES: O=C(O)Cn1cc(C(=O)C2CC2)c2ccccc21
- Kd: > 4 mM (inactive)

SMILES: COc1ccc(-c2oc3cc(O[C@H]4O[C@H](CO)[C@@H](O)[C@H](O)[C@H]4O)c(OC)c(O)c3c(=O)c2OC)cc1O
- Kd: > 4 mM (inactive)

SMILES: Cn1nnc2cc(CO)ccc21
- Kd: > 4 mM (inactive)

SMILES: Cc1nc(NC(=O)c2cccnc2)ccc1Br
- Kd: > 4 mM (inactive)

SMILES: N=c1n(N)c2ccccc2n1CCO
- Kd: > 4 mM (inactive)

SMILES: CC(=O)Nc1ccc(S(=O)(=O)N2CCN=C2C)cc1
- Kd: > 4 mM (inactive)

SMILES: NC(=O)CC1Sc2ccccc2NC1=O (stereo not drawn)
- Kd: > 4 mM (inactive)

SMILES: Nc1nc(-c2ccccc2)cc(=O)[nH]1
- Kd: > 4 mM (inactive)

SMILES: C=C[C@](C)(O)CCC=C(C)C
- Kd: > 4 mM (inactive)

SMILES: Cn1nc(C(=O)NC2CCCCC2)c2ccccc2c1=O
- Kd: > 4 mM (inactive)

SMILES: CSc1ncc(CO)n1Cc1ccccc1
- Kd: > 4 mM (inactive)

SMILES: Cn1c(CNc2ccccc2)cc(=O)n(C)c1=O
- Kd: > 4 mM (inactive)

SMILES: O=C(O)CCCNC(=O)c1ccccc1C(=O)O
- Kd: > 4 mM (inactive)

SMILES: COCC(=O)N1CCCc2ccccc21
- Kd: > 4 mM (inactive)

SMILES: CC(=O)c1c(C)nn(CC(=O)O)c1C
- Kd: > 4 mM (inactive)

SMILES: Cc1nc(-c2cc(CO)no2)cs1
- Kd: > 4 mM (inactive)

SMILES: Nc1nc(SCc2ccc3c(c2)OCCO3)n[nH]1
- Kd: > 4 mM (inactive)

SMILES: CS(=O)(=O)c1ccc(N)cc1
- Kd: > 4 mM (inactive)

SMILES: Nc1cc(=O)[nH]c(=O)n1Cc1ccco1
- Kd: > 4 mM (inactive)

SMILES: CC1(C)CC[C@]2(C(=O)O)CC[C@]3(C)C(=CCC4[C@@]5(C)CC[C@@H](O)C(C)(C)C5CC[C@]43C)C2C1 (stereo partly drawn)
- Kd: > 4 mM (inactive)

SMILES: CN(C)C(=O)Oc1ccc(-c2nnco2)cc1
- Kd: > 4 mM (inactive)

SMILES: Cc1cccc(N2C(=O)CC(=O)NC2=O)c1
- Kd: > 4 mM (inactive)

SMILES: C=C1C2CC[C@@]3(C)[C@H](c4ccoc4)OC(=O)C[C@]13O[C@H]1CC(=O)C(C)(C)C(CC(=O)OC)C21C (stereo partly drawn)
- Kd: > 4 mM (inactive)

SMILES: CN(Cc1nc2ccccc2n1C)S(C)(=O)=O
- Kd: > 4 mM (inactive)

SMILES: COc1ccc(-c2c(C)n([O-])c(C)c(C)[n+]2=O)cc1
- Kd: > 4 mM (inactive)

SMILES: COc1ccccc1C(=O)NC1CCN(C)CC1
- Kd: > 4 mM (inactive)

SMILES: O=C(CC1NC(=O)NC1=O)Nc1ccccc1 (stereo not drawn)
- Kd: > 4 mM (inactive)

SMILES: OC1CCC(C(F)(F)F)CC1 (stereo not drawn)
- Kd: > 4 mM (inactive)

SMILES: CC(NC(=O)C1CCCCC1)C(=O)NC1=NCCS1 (stereo not drawn)
- Kd: > 4 mM (inactive)

SMILES: COc1ccccc1NS(=O)(=O)c1c[nH]c(=O)[nH]c1=O
- Kd: > 4 mM (inactive)

SMILES: Cc1ccc(/C=C2/NC(=S)NC2=O)s1
- Kd: > 4 mM (inactive)

SMILES: CN1CCN(C2CCN(Cc3ccccc3)CC2)CC1
- Kd: > 4 mM (inactive)

SMILES: C(=N\c1nccs1)/c1cccnc1
- Kd: > 4 mM (inactive)

SMILES: O=C1NC(=S)S/C1=C/c1ccncc1
- Kd: > 4 mM (inactive)

SMILES: CC1=C(/C=C/C(C)=C/C=C/C(C)=C/CO)C(C)(C)CCC1
- Kd: > 4 mM (inactive)

SMILES: Cn1nc(C(=O)N2CCOCC2)c2ccccc2c1=O
- Kd: > 4 mM (inactive)

SMILES: Cc1cc(NC(=O)c2cccc(S(C)(=O)=O)c2)no1
- Kd: > 4 mM (inactive)

SMILES: COC(=O)C[C@@H]1C2(C)C(=O)[C@@H](CC3C2CC[C@]2(C)C3CC(=O)O[C@H]2c2ccoc2)[C@H](OC(C)=O)C1(C)C (stereo partly drawn)
- Kd: > 4 mM (inactive)

SMILES: CC(=O)NCC1(c2ccccc2)CCOCC1
- Kd: > 4 mM (inactive)

SMILES: C[C@@H]1O[C@@H](O[C@H]2CC[C@]3(C=O)C4CC[C@]5(C)[C@@H](C6=CC(=O)OC6)CC[C@]5(O)C4CC[C@]3(O)C2)[C@H](O)[C@H](O)[C@H]1O (stereo partly drawn)
- Kd: > 4 mM (inactive)

SMILES: COc1nc(-c2ccccc2)ccc1-c1noc(C)n1
- Kd: > 4 mM (inactive)

SMILES: Nc1oncc1-c1ccccn1
- Kd: > 4 mM (inactive)

SMILES: Oc1cc2c(cc1O)C1c3ccc(O)c(O)c3OCC1(O)C2 (stereo not drawn)
- Kd: > 4 mM (inactive)

SMILES: Cc1cc(N(CN2CCCC2=O)C(=O)c2ccccc2)no1
- Kd: > 4 mM (inactive)

SMILES: CCSc1nnc2[nH]c(=O)cc(C)n12
- Kd: > 4 mM (inactive)

SMILES: Cc1nnc(N2CCN(Cc3ccccc3)CC2)[nH]c1=O
- Kd: > 4 mM (inactive)

SMILES: N#Cc1cc2c(nc1SCc1ccncc1)CCC2
- Kd: > 4 mM (inactive)

SMILES: O=C(Nc1ccccc1[N+](=O)[O-])c1ccc(=O)[nH]n1
- Kd: > 4 mM (inactive)

SMILES: C=C1C2=CC(=O)O[C@@H](c3ccoc3)[C@]2(C)CCC1[C@@]1(C)C=CC(=O)C(C)(C)[C@@H]1CC(=O)OC (stereo partly drawn)
- Kd: > 4 mM (inactive)

SMILES: COc1c(F)c(F)c(-c2csc(N)n2)c(F)c1F
- Kd: > 4 mM (inactive)

SMILES: COC(=O)c1ccc(N2CCCC2)nc1
- Kd: > 4 mM (inactive)

SMILES: O=C(Nc1cccc(Cl)c1)c1cnn2cccnc12
- Kd: > 4 mM (inactive)

SMILES: CC(=O)c1c(C)n(O)c2ccc3nonc3c12
- Kd: > 4 mM (inactive)

SMILES: Nc1nnc(SCc2cccnc2)s1
- Kd: > 4 mM (inactive)

SMILES: c1ccc(-c2noc(-c3ccco3)n2)nc1
- Kd: > 4 mM (inactive)

SMILES: Cn1ncc(SCc2ccco2)c(Cl)c1=O
- Kd: > 4 mM (inactive)

SMILES: Cc1ccc(O)c(NC(=O)c2ccco2)c1
- Kd: > 4 mM (inactive)

SMILES: Cc1cc(C)nc(/N=C(/N)N2CCOCC2)n1
- Kd: > 4 mM (inactive)

SMILES: CC(=O)c1nnc2cc(C)nn2c1C
- Kd: > 4 mM (inactive)

SMILES: Cc1ccc(C(=O)Nn2cnnc2)c(Cl)c1
- Kd: > 4 mM (inactive)

SMILES: O=C(Nc1cccnc1)c1c(F)cccc1F
- Kd: > 4 mM (inactive)

SMILES: OC1COCc2nc3ccccc3n2C1 (stereo not drawn)
- Kd: > 4 mM (inactive)

SMILES: Cc1cc(NC(=O)Cc2c(F)cccc2Cl)no1
- Kd: > 4 mM (inactive)

SMILES: NC(=O)C1CC2C=CC1C2 (stereo not drawn)
- Kd: > 4 mM (inactive)

SMILES: CC(NC(=O)c1ccco1)C1CCCO1 (stereo not drawn)
- Kd: > 4 mM (inactive)

SMILES: NCc1ccc(-c2cccs2)s1
- Kd: > 4 mM (inactive)

SMILES: O=c1[nH]cc(NC(=S)N2CCOCC2)c(=O)[nH]1
- Kd: > 4 mM (inactive)

SMILES: N#Cc1nc(-c2cccs2)oc1N1CCOCC1
- Kd: > 4 mM (inactive)

SMILES: COc1ccc(CN2CCNC(=O)C2CC(=O)O)cc1C (stereo not drawn)
- Kd: > 4 mM (inactive)

SMILES: CNC(=O)CC1Sc2ccccc2NC1=O (stereo not drawn)
- Kd: > 4 mM (inactive)

SMILES: Nc1ccccc1N1CCOCC1
- Kd: > 4 mM (inactive)

SMILES: Cc1occc1C(=O)NCc1ccccn1
- Kd: > 4 mM (inactive)

SMILES: C/C=C/c1ccc2c(c1)OCO2
- Kd: > 4 mM (inactive)

SMILES: Nc1nc(N)nc(N2C(=O)c3ccccc3C2=O)n1
- Kd: > 4 mM (inactive)

SMILES: Cc1cccnc1NC1=NCC(C)S1 (stereo not drawn)
- Kd: > 4 mM (inactive)

SMILES: CC1(C)Cc2cccc(CO)c2O1
- Kd: > 4 mM (inactive)
